In patent US20230242530A1, “8-(AZETIDIN-1-YL)-[1,2,4]TRIAZOLO[1,5-A]PYRIDINYL COMPOUNDS, COMPOSITIONS AND METHODS OF USE THEREOF” (Genentech, Inc., priority 2016, published 2023):

Assays:
[1] = molecular target: T1, isolated recombinant JAK1 kinase domain (Homo sapiens, UniProt P23458); assay: JAK enzyme assay, JAK1 kinase domain (Caliper LabChip); assay type: biochemical; details: 1.5 nM JAK1, ATP 25 μM, Morrison tight binding model
T1 construct: isolated recombinant JAK1 and JAK2 kinase domain
T1 sequence (P23458 875-1153 limits assumed): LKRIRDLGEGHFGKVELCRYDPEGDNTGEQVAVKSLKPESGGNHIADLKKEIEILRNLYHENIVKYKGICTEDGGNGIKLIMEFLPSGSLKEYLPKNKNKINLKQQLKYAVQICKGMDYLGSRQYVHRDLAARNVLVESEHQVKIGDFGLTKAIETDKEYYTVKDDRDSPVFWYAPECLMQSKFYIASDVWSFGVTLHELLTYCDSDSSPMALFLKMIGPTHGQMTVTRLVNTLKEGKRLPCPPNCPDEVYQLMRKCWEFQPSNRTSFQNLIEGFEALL
Experimental: (§1) JAK Enzyme Assays were Carried Out as Follows:
(§2) The activity of the isolated recombinant JAK1 and JAK2 kinase domain was measured by monitoring phosphorylation of a peptide derived from JAK3 (Val-Ala-Leu-Val-Asp-Gly-Tyr-Phe-Arg-Leu-Thr-Thr, fluorescently labeled on the N-terminus with 5-carboxyfluorescein) using the Caliper LabChip® technology (Caliper Life Sciences, Hopkinton, Mass.). […] Reactions were incubated at 22 °C in 384-well polypropylene microtiter plates for 30 minutes and then stopped by addition of 25 μL of an EDTA containing solution (100 mM HEPES buffer (pH 7.2), 0.015% Brij-35, 150 mM EDTA), resulting in a final EDTA concentration of 50 mM. After termination of the kinase reaction, the proportion of phosphorylated product was determined as a fraction of total peptide substrate using the Caliper LabChip® 3000 according to the manufacturer's specifications. Ki values were then determined using the Morrison tight binding model (Morrison, J. F., Biochim. Biophys. Acta. 185:269-296 (1969); William, J. W. and Morrison, J. F., Meth. Enzymol., 63:437-467 (1979)) modified for ATP-competitive inhibition [Ki=Ki,app/(1+[ATP]/Km,app)].

[2] = system: JAK1-dependent STAT6 phosphorylation downstream of IL-13 stimulation in BEAS-2B cells; assay: JAK1 pathway assay in cell lines: IL-13 p-STAT6 BEAS-2B; assay type: cell-based; details: BEAS-2B human bronchial epithelial cells, 1 hr compound, IL-13 15 min, MSD readout
Experimental: JAK1 Pathway Assay in Cell Lines was Carried Out as Follows:
Inhibitor potency (EC50) was determined in cell-based assays designed to measure JAK1 dependent STAT phosphorylation. As noted above, inhibition of IL-4, IL-13, and IL-9 signalling by blocking the Jak/Stat signaling pathway can alleviate asthmatic symptoms in pre-clinical lung inflammation models (Mathew et al., 2001, J Exp Med 193(9): 1087-1096; Kudlacz et. al., 2008, Eur J. Pharmacol 582(1-3): 154-161).
In one assay approach, TF-1 human erythroleukemia cells obtained from the American Type Culture Collection (ATCC; Manassas, Va.) were used to measure JAK1-dependent STAT6 phosphorylation downstream of IL-13 stimulation. Prior to use in the assays, TF-1 cells were starved of GM-CSF overnight in OptiMEM medium (Life Technologies, Grand Island, N.Y.) supplemented with 0.5% charcoal/dextran stripped fetal bovine serum (FBS), 0.1 mM non-essential amino acids (NEAA), and 1 mM sodium pyruvate. The assays were run in 384-well plates in serum-free OptiMEM medium using 300,000 cells per well. In a second assay approach, BEAS-2B human bronchial epithelial cells obtained from ATCC were plated at 100,000 cells per well of a 96-well plate one day prior to the experiment. The BEAS-2B assay was run in complete growth medium (bronchial epithelial basal medium plus bulletkit; Lonza; Basel, Switzerland).
Test compounds were serially diluted 1:2 in DMSO and then diluted 1:50 in medium just before use. Diluted compounds were added to the cells, for a final DMSO concentration of 0.2%, and incubated for 30 mi (for the TF-1 assay) or 1 hr (for the BEAS-2B assay) at 37 QC. Then, cells were stimulated with human recombinant cytokine at their respective EC90 concentrations, as previously determined for each individual lot. Cells were stimulated with IL-13 (R&D Systems, Minneapolis, Minn.) for 15 min at 37 °C. The TF-1 cell reactions were stopped by the direct addition of 10× lysis buffer (Cell Signaling Technologies, Danvers, Mass.), whereas the BEAS-2B cell incubations were halted by the removal of medium and addition of 1× lysis buffer. The resultant samples were frozen in the plates at −80 °C. Compound mediated inhibition of STAT6 phosphorylation was measured in the cell lysates using MesoScale Discovery (MSD) technology (Gaithersburg, Md.). EC50 values were determined as the concentration of compound required for 50% inhibition of STAT phosphorylation relative to that measured for the DMSO control.

[3] = molecular target: T2, isolated recombinant JAK2 kinase domain (Homo sapiens, UniProt O60674); assay: JAK enzyme assay, JAK2 kinase domain (Caliper LabChip); assay type: biochemical; details: 0.2 nM JAK2, ATP 25 μM, Morrison tight binding model
T2 construct: isolated recombinant JAK1 and JAK2 kinase domain
T2 sequence (O60674 849-1124 limits assumed): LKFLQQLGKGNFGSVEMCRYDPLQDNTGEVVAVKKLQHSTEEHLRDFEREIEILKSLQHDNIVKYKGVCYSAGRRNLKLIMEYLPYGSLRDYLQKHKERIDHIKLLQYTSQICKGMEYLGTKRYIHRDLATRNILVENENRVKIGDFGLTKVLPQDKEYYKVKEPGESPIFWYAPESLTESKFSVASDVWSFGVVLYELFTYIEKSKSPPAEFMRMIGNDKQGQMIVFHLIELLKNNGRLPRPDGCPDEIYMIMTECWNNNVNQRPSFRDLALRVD
Experimental: as §1, §2

Question: What does the source list for `CN1CCN(C(=O)Cn2cc(Nc3nc4c(N5CC(CC#N)(c6ccc(C(F)(F)F)cc6)C5)cccn4n3)cn2)CC1` [Example 17]?
Answer: Ki [1]: 0.3 nM; EC50 [2]: 18 nM; Ki [3]: 1.2 nM

Question: Which results are given for `CN1CCN(C(=O)Cn2cc(Nc3nc4c(N5CC(CC#N)(n6cccn6)C5)cccn4n3)cn2)CC1` [Example 18]?
Answer: Ki [1]: 0.7 nM; EC50 [2]: 21 nM; Ki [3]: 1.5 nM

Question: Which Ki [1] does the source give for `CN1CCN(C(=O)Cn2cc(Nc3nc4c(N5CC(CC#N)(n6cc(F)cn6)C5)cccn4n3)cn2)CC1` [Example 19, 2-[3-(4-fluoropyrazol-1-yl)-1-[2-[[1-[2-(4-methylpiperazin-1-yl)-2-oxo-ethyl]pyrazol-4-yl]amino]-[1,2,4]triazolo[1,5-a]pyridin-8-yl]azetidin-3-yl]acetonitrile] here?
Answer: 4.4 nM

Question: What about the EC50 [2] of the same molecule?
Answer: 255 nM

Question: What about the Ki [3] of the same molecule?
Answer: 4 nM

Question: `CN1CCN(C(=O)Cn2cc(Nc3nc4c(N5CC(CC#N)(n6cc(CO)cn6)C5)cccn4n3)cn2)CC1` [Example 20, 2-[3-[4-(hydroxymethyl)pyrazol-1-yl]-1-[2-[[1-[2-(4-methylpiperazin-1-yl)-2-oxo-ethyl]pyrazol-4-yl]amino]-[1,2,4]triazolo[1,5-a]pyridin-8-yl]azetidin-3-yl]acetonitrile] was tested. Which Ki [1] did it give?
Answer: 1.2 nM

Question: And the EC50 [2]?
Answer: > 1000 nM

Question: And the Ki [3]?
Answer: 9.6 nM

Question: For `CN1CCN(C(=O)Cn2cc(Nc3nc4c(N5CC(CC#N)(n6cc(-c7ccccc7)cn6)C5)cccn4n3)cn2)CC1` [Example 21, formic acid;2-[1-[2-[[1-[2-(4-methylpiperazin-1-yl)-2-oxo-ethyl]pyrazol-4-yl]amino]-[1,2,4]triazolo[1,5-a]pyridin-8-yl]-3-(4-phenylpyrazol-1-yl)azetidin-3-yl]acetonitrile], which Ki [1] is on record?
Answer: 1.1 nM

Question: What about the EC50 [2] of the same molecule?
Answer: 43 nM

Question: What about the Ki [3] of the same molecule?
Answer: 7.7 nM

Question: Which Ki [1] does the source give for `CCCc1cnn(C2(CC#N)CN(c3cccn4nc(Nc5cnn(CC(=O)N6CCN(C)CC6)c5)nc34)C2)c1` [Example 22] here?
Answer: 1 nM

Question: And the EC50 [2]?
Answer: 36 nM

Question: What about the Ki [3] of the same molecule?
Answer: 3 nM

Question: For `CN1CCN(C(=O)Cn2cc(Nc3nc4c(N5CC(CC#N)(c6ccc(Cl)c(F)c6)C5)cccn4n3)cn2)CC1` [Example 23, 2-[3-(4-chloro-3-fluoro-phenyl)-1-[2-[[1-[2-(4-methylpiperazin-1-yl)-2-oxo-ethyl]pyrazol-4-yl]amino]-[1,2,4]triazolo[1,5-a]pyridin-8-yl]azetidin-3-yl]acetonitrile], which Ki [1] is on record?
Answer: 0.7 nM

Question: What about the EC50 [2] of the same molecule?
Answer: 40 nM

Question: What about the Ki [3] of the same molecule?
Answer: 6.1 nM

Question: How did the Ki [1] turn out when `Cc1cc(Cl)ccc1C1(CC#N)CN(c2cccn3nc(Nc4cnn(CC(=O)N5CCN(C)CC5)c4)nc23)C1` [Example 24, 2-[3-(4-chloro-2-methyl-phenyl)-1-[2-[[1-[2-(4-methylpiperazin-1-yl)-2-oxo-ethyl]pyrazol-4-yl]amino]-[1,2,4]triazolo[1,5-a]pyridin-8-yl]azetidin-3-yl]acetonitrile] was run?
Answer: 0.4 nM

Question: And the EC50 [2]?
Answer: 87 nM

Question: What about the Ki [3] of the same molecule?
Answer: 2.3 nM

Question: How did the Ki [1] turn out when `CN1CCN(C(=O)Cn2cc(Nc3nc4c(N5CC(CC#N)(n6cc(CCO)cn6)C5)cccn4n3)cn2)CC1` [Example 25, 2-[3-[4-(2-hydroxyethyl)pyrazol-1-yl]-1-[2-[[1-[2-(4-methylpiperazin-1-yl)-2-oxo-ethyl]pyrazol-4-yl]amino]-[1,2,4]triazolo[1,5-a]pyridin-8-yl]azetidin-3-yl]acetonitrile] was run?
Answer: 0.4 nM

Question: And the EC50 [2]?
Answer: 137 nM

Question: And the Ki [3]?
Answer: 2.3 nM

Question: `CN1CCN(C(=O)Cn2cc(Nc3nc4c(N5CC(CC#N)(Cc6ccccc6)C5)cccn4n3)cn2)CC1` [Example 26, 2-[3-benzyl-1-[2-[[1-[2-(4-methylpiperazin-1-yl)-2-oxo-ethyl]pyrazol-4-yl]amino]-[1,2,4]triazolo[1,5-a]pyridin-8-yl]azetidin-3-yl]acetonitrile] was tested. Which Ki [1] did it give?
Answer: 0.4 nM

Question: What about the EC50 [2] of the same molecule?
Answer: 42 nM

Question: What about the Ki [3] of the same molecule?
Answer: 2.1 nM

Question: How did the Ki [1] turn out when `Cc1cc(C2(CC#N)CN(c3cccn4nc(Nc5cnn(CC(=O)N6CCN(C)CC6)c5)nc34)C2)ccc1Cl` [Example 27, 2-[3-(4-chloro-3-methyl-phenyl)-1-[2-[[1-[2-(4-methylpiperazin-1-yl)-2-oxo-ethyl]pyrazol-4-yl]amino]-[1,2,4]triazolo[1,5-a]pyridin-8-yl]azetidin-3-yl]acetonitrile] was run?
Answer: 0.5 nM

Question: And the EC50 [2]?
Answer: 51 nM

Question: What about the Ki [3] of the same molecule?
Answer: 1.8 nM

Question: Which Ki [1] does the source give for `COc1cnn(C2(CC#N)CN(c3cccn4nc(Nc5cnn(CC(=O)N6CCN(C)CC6)c5)nc34)C2)c1` [Example 28, 2-[3-(4-methoxypyrazol-1-yl)-1-[2-[[1-[2-(4-methylpiperazin-1-yl)-2-oxo-ethyl]pyrazol-4-yl]amino]-[1,2,4]triazolo[1,5-a]pyridin-8-yl]azetidin-3-yl]acetonitrile] here?
Answer: 0.4 nM

Question: What about the EC50 [2] of the same molecule?
Answer: 54 nM

Question: And the Ki [3]?
Answer: 1.4 nM

Question: What does the source list for `CCc1cnn(C2(CC#N)CN(c3cccn4nc(Nc5cnn(CC(=O)N6CCC(N7CCOCC7)CC6)c5)nc34)C2)c1` [Example 29, 2-[3-(4-ethylpyrazol-1-yl)-1-[2-[[1-[2-(4-morpholino-1-piperidyl)-2-oxo-ethyl]pyrazol-4-yl]amino]-[1,2,4]triazolo[1,5-a]pyridin-8-yl]azetidin-3-yl]acetonitrile]?
Answer: Ki [1]: 0.6 nM; EC50 [2]: 78 nM; Ki [3]: 2.1 nM

Question: How did the Ki [1] turn out when `CCc1cnn(C2(CC#N)CN(c3cccn4nc(Nc5cnn(CC(=O)N6CCC(NCC(C)(F)F)CC6)c5)nc34)C2)c1` [Example 30, 2-[1-[2-[[1-[2-[4-(2,2-difluoropropylamino)-1-piperidyl]-2-oxo-ethyl]pyrazol-4-yl]amino]-[1,2,4]triazolo[1,5-a]pyridin-8-yl]-3-(4-ethylpyrazol-1-yl)azetidin-3-yl]acetonitrile] was run?
Answer: 0.7 nM

Question: What about the EC50 [2] of the same molecule?
Answer: 104 nM

Question: And the Ki [3]?
Answer: 2.7 nM

Question: With `CCc1cnn(C2(CC#N)CN(c3cccn4nc(Nc5cnn(CC(=O)N6CCN(C7CCOCC7)CC6)c5)nc34)C2)c1` [Example 31, 2-[3-(4-ethylpyrazol-1-yl)-1-[2-[[1-[2-oxo-2-(4-tetrahydropyran-4-ylpiperazin-1-yl)ethyl]pyrazol-4-yl]amino]-[1,2,4]triazolo[1,5-a]pyridin-8-yl]azetidin-3-yl]acetonitrile] as the molecule, how does the Ki [1] read?
Answer: 0.4 nM

Question: What about the EC50 [2] of the same molecule?
Answer: 19 nM

Question: What about the Ki [3] of the same molecule?
Answer: 1.1 nM

Question: What does the source list for `CCc1cnn(C2(CC#N)CN(c3cccn4nc(Nc5cnn(CC(=O)N6CCN(C7COC7)CC6)c5)nc34)C2)c1` [Example 32, 2-[3-(4-ethylpyrazol-1-yl)-1-[2-[[1-[2-[4-(oxetan-3-yl)piperazin-1-yl]-2-oxo-ethyl]pyrazol-4-yl]amino]-[1,2,4]triazolo[1,5-a]pyridin-8-yl]azetidin-3-yl]acetonitrile;formic acid]?
Answer: Ki [1]: 0.4 nM; EC50 [2]: 19 nM; Ki [3]: 0.2 nM

Question: With `CCc1cnn(C2(CC#N)CN(c3cccn4nc(Nc5cnn(CC(=O)N6CCC(NCC(C)(C)C#N)CC6)c5)nc34)C2)c1` [Example 33, 3-[[1-[2-[4-[[8-[3-(cyanomethyl)-3-(4-ethylpyrazol-1-yl)azetidin-1-yl]-[1,2,4]triazolo[1,5-a]pyridin-2-yl]amino]pyrazol-1-yl]acetyl]-4-piperidyl]amino]-2,2-dimethyl-propanenitrile] as the molecule, how does the Ki [1] read?
Answer: 0.3 nM

Question: What about the EC50 [2] of the same molecule?
Answer: 18 nM

Question: And the Ki [3]?
Answer: 0.2 nM
